# Test results taken from patent US20260183350A1, “ANTIBIOTIC-RESISTANT BACTERIA” (priority 2022, published 2026).
# Key:
# [1] = system: vancomycin-resistant E. faecium; assay: VRE nutrient utilization protocol: nitrogen sources, leave-one-out; type: cell-based, Enterococcus faecium; conditions: aerobic; leave-one-out from nitrogen source mixture in minimal medium
# Experimental: (§1) VRE minimal media consists of potassium phosphate monobasic (4 g/L), potassium phosphate dibasic (14 g/L), sodium citrate (1 g/L), magnesium sulphate (0.2 g/L), ammonium sulphate (2 g/L), adenosine (0.04 g/L), thymine (0.04 g/L), Kao and Michayluk vitamin solution [Sigma, K3129, 50× Stock](5×), glucose (1 g/L) and amino acid solution [Sigma, R7131, RPMI-1640, 50×](25×). If the study was performed under anaerobic conditions, fumarate (5.2 g/L) was added to increase growth of VRE strains. Carbon-free minimal media was prepared by leaving out glucose while nitrogen-free minimal media was prepared without the amino acid solution. Media was filter sterilized with a 0.22 micron filter and used immediately aerobically or degassed overnight if used anaerobically.
# (§2) VRE strains were grown on R2A overnight before the cells were suspended in 0.9% saline to an OD of 0.38 (λ=595 nm). A 10% dilution of the cell suspension was prepared using VRE minimal media to achieve a final well OD of […] (λ=595 nm) greater than the sterile media OD. Both carbon and nitrogen source utilization were evaluated by adding the inoculated media and a filter-sterilised nutrient source solution into a well in a 1:1 ration to a final volume of 100 μL in aerobic tests and 200 μL in anaerobic tests. Carbon sources were tested individually and compared to a carbon-free control. To test nitrogen source utilization, a nitrogen source solution was prepared containing L-alanine (2 g/L), L-arginine (2.5 g/L, L-asparagine (0.71 g/L), L-aspartate (0.25 g/L), L-cysteine (0.625 g/L), L-glutamate (0.25 g/L), L-Glycine (0.125 g/L), L-histidine (0.1875 g/L), L-isoleucine (0.625 g/L), L-leucine (0.625 g/L), L-lysine HCl (0.5 g/L), L-methionine (0.1875 g/L), L-phenylalanine (0.1875 g/L), L-proline (0.25 g/L), L-serine (0.375 g/L), L-threonine (0.25 g/L), L-tryptophan (0.0625 g/L), L-tyrosine (0.29 g/L), L-valine (0.25 g/L), N-acetylglucosamine (2 g/L), and uracil (2.5 g/L). To test the strains' ability to utilize individual nitrogen sources, separate solutions were prepared eliminating one nitrogen source each. The change in growth compared to the complete nitrogen source solution control was used to determine nitrogen utilization. All carbon and nitrogen sources were tested in a technical triplicate for each biological replicate. Aerobic plates were incubated with a plate seal while anaerobic plates were not. The aerobic plate reader was set to read the plate (λ=595 nm, 37° C., 22 flashes per well, orbital shaking of 100 rpm for 15 s prior to each read) every 15 minutes for 24 hours. The anaerobic plate reader read the plate (λ=595 nm, 37° C., stationary) every 15 minutes for 24 hours.
# [2] = system: NDM-1 Enterobacter cloacae; assay: Nutrient preference assay (nutrient mixture); type: cell-based; conditions: M9 with […] of each nutrient, up to 24 hours
# Experimental: (§3) New Delhi Metallo-β-lactamase 1 (NDM-1) Escherichia coli, NDM-1 Klebsiella pneumoniae, and NDM-1 Enterobacter cloacae were isolated from patients with intestinal CRE colonisation from the Imperial College Healthcare NHS Trust via rectal swab (REC ref. 19/LO/0112). The species were assigned by matrix assisted laser desorption ionization-time of flight (MALDI-TOF) mass spectrometry and later confirmed with 16S rRNA gene sequencing. CRE status was determined using X-pert Carba-R PCR detection (Cepheid, Sunnyvale, CA, USA), (Otter, J. A. et al. Detecting carbapenemase-producing Enterobacterales (CPE): an evaluation of an enhanced CPE infection control and screening programme in acute care. J Antimicrob Chemother 75, 2670-2676 (2020)).
# (§4) CRE isolates were passaged once from frozen glycerol stocks on R2A plates. Cells were suspended in M9 minimal media to a turbidity of 42% using a Turbidimeter (Biolog Inc.), then diluted 1 in 6 to inoculate the nutrient preference assays. M9 minimal media was supplemented with 0.015% of each of the following: L-arabinose, D-fructose, L-fucose, D-galactose, D-glucose, D-mannose, D-ribose, D-xylose, N-acetylglucosamine, D-maltose, sucrose, D-trehalose, L-alanine, L-arginine, L-aspartate, L-glutamate, L-glycine, L-isoleucine, L-leucine, L-lysine, L-methionine, L-phenylalanine, L-proline, L-threonine, L-tryptophan, L-tyrosine, L-valine, uracil, and succinate. Cultures were incubated anaerobically and aerobically in a plate reader and OD600 readings were collected every 15 minutes for 24 hours. Cultures were also incubated anaerobically and aerobically for 24 h and samples were collected at 0, 4, 8, and 24 hours post-inoculation for 1H-NMR spectroscopy. Changes in nutrients and metabolites by CRE isolates was compared to the sterile media control over time using a two-way mixed ANOVA followed by pairwise comparisons with Bonferroni correction. […]
# [3] = system: NDM-1 Enterobacter cloacae; assay: Nitrogen utilisation assay; type: cell-based; conditions: M9 minimal medium with glucose, 0.1% (w/v) nitrogen source
# Experimental: as §3
# (§5) Growth of CRE isolates on sole carbon or nitrogen sources was tested by inoculating each CRE isolate into a minimal medium supplemented with the nutrient of interest. First, CRE isolates were passaged from frozen glycerol stocks on Reasoner's 2A agar (R2A) plates. Cells were then suspended in M9 minimal media to a turbidity of 42% using a Turbidimeter (Biolog Inc.), then diluted a further 1 in 6 to inoculate the carbon or nitrogen utilisation assays. M9 minimal media contained the following (at final concentrations): 22 mM KH2PO4, 42 mM Na2HPO4, 9 mM NaCl, 0.49 mM MgSO4·7H2O, 0.09 mM CaCl2), 0.011 mM FeSO4·7H2O. For the carbon assays the M9 minimal medium was also supplemented with 0.1% (w/v) NH4Cl (as the nitrogen source) and the carbon sources were individually tested at 0.5% (w/v) concentration. For the nitrogen assays the M9 minimal medium was also supplemented with 0.5% (w/v) glucose (as the carbon source) and the nitrogen sources were individually tested at 0.1% (w/v) concentration. Cultures were incubated anaerobically and aerobically in a plate reader and OD600 readings were collected every 15 minutes for 24 hours.
# (§6) Growth curves were analysed in Python (v3.6.5) using the AMiGA software (Midani, F. S., Collins, J. & Britton, R. A. AMiGA: Software for Automated Analysis of Microbial Growth Assays. mSystems 6, e0050821 (2021)). Growth of each isolate was measured with 6 wells from 2-3 independent experiments. Growth curves were normalised to the no substrate control using the subtraction method. AMiGA performed Gaussian Process regression to test differential growth between the substrate and the no substrate control. The functional difference in the OD (and its credible interval) was also computed between the substrate and the no substrate control.
# NDM-1 Escherichia coli [4] = assay: Nitrogen utilisation assay; type: cell-based; conditions: M9 minimal medium with glucose, 0.1% (w/v) nitrogen source
# Experimental: as §3, §5, §6
# [5] = system: NDM-1 Klebsiella pneumoniae; assay: Nitrogen utilisation assay; type: cell-based; conditions: M9 minimal medium with glucose, 0.1% (w/v) nitrogen source
# Experimental: as §3, §5, §6
# [6] = system: vancomycin-resistant E. faecalis; assay: VRE nutrient utilization protocol: nitrogen sources, leave-one-out; type: cell-based, Enterococcus faecalis; conditions: aerobic; leave-one-out from nitrogen source mixture in minimal medium
# Experimental: as §1, §2
# [7] = system: NDM-1 Klebsiella pneumoniae; assay: Nutrient preference assay (nutrient mixture); type: cell-based; conditions: M9 with […] of each nutrient, up to 24 hours
# Experimental: as §3, §4
# [8] = system: NDM-1 Enterobacter cloacae; assay: Carbon utilisation assay; type: cell-based; conditions: aerobic; M9 minimal medium, 0.5% (w/v) carbon source
# Experimental: as §3, §5, §6
# NDM-1 Escherichia coli [9] = assay: Nutrient preference assay (nutrient mixture); type: cell-based; conditions: M9 with […] of each nutrient, up to 24 hours
# Experimental: as §3, §4
# [10] = system: NDM-1 Klebsiella pneumoniae; assay: Carbon utilisation assay; type: cell-based; conditions: aerobic; M9 minimal medium, 0.5% (w/v) carbon source
# Experimental: as §3, §5, §6
Structure (SMILES),Use as nitrogen source to support E. faecium growth [1],Utilisation of nutrient by E. cloacae from nutrient mixture (1H-NMR) ([2]; aerobic),Utilisation of nutrient by E. cloacae from nutrient mixture (1H-NMR) ([2]; anaerobic),Use as sole nitrogen source to support K. pneumoniae growth ([5]; aerobic),Use as nitrogen source to support E. faecalis growth [6],Use as sole nitrogen source to support E. cloacae growth ([3]; aerobic),Use as sole nitrogen source to support E. coli growth (NDM-1 Escherichia coli [4]; aerobic),also measured
"N=C(N)NCCC[C@H](N)C(=O)O [arginine, L-arginine]",could use,high utilisation,high utilisation,could use,could use,,,Use as sole nitrogen source to support E. cloacae growth ([3]; anaerobic): could use; Use as sole nitrogen source to support E. coli growth (NDM-1 Escherichia coli [4]; anaerobic): could use; Use as sole nitrogen source to support K. pneumoniae growth ([5]; anaerobic): could use
"N[C@@H](CS)C(=O)O [cysteine, L-cysteine]",,,,,could use,,,
"C[C@H](O)[C@@H](O)[C@@H](O)[C@H](O)C=O [fucose, L-fucose]",,,,,,,,Utilisation of nutrient by K. pneumoniae from nutrient mixture (1H-NMR) ([7]; aerobic): not utilised; Utilisation of nutrient by K. pneumoniae from nutrient mixture (1H-NMR) ([7]; anaerobic): not utilised; Use as sole carbon source to support E. cloacae growth [8]: able to grow
"NCC(=O)O [glycine, L-glycine]",could use,,,able to grow,could use,able to grow,able to grow,
"N[C@@H](Cc1c[nH]cn1)C(=O)O [histidine, L-histidine]",could use,,,,could use,,,
"CC[C@H](C)[C@H](N)C(=O)O [isoleucine, L-isoleucine]",could use,,,able to grow,could use,able to grow,able to grow,
"CC(C)C[C@H](N)C(=O)O [leucine, L-leucine]",could use,,,able to grow,could use,able to grow,able to grow,
"CSCC[C@H](N)C(=O)O [methionine, L-methionine]",could use,,,able to grow,could use,able to grow,able to grow,
"N[C@@H](Cc1ccccc1)C(=O)O [phenylalanine, L-phenylalanine]",could use,,,,,able to grow,,
"O=C(O)[C@@H]1CCCN1 [proline, L-proline]",,not utilised,not utilised,able to grow,,able to grow,able to grow,Utilisation of nutrient by E. coli from nutrient mixture (1H-NMR) (NDM-1 Escherichia coli [9]; aerobic): not utilised; Utilisation of nutrient by E. coli from nutrient mixture (1H-NMR) (NDM-1 Escherichia coli [9]; anaerobic): not utilised; Utilisation of nutrient by K. pneumoniae from nutrient mixture (1H-NMR) ([7]; anaerobic): not utilised; Use as sole carbon source to support K. pneumoniae growth [10]: able to grow
"N[C@@H](CO)C(=O)O [serine, L-serine]",could use,,,,could use,,,
"C[C@@H](O)[C@H](N)C(=O)O [threonine, L-threonine]",could use,high utilisation,high utilisation,,,able to grow,able to grow,Utilisation of nutrient by E. coli from nutrient mixture (1H-NMR) (NDM-1 Escherichia coli [9]; aerobic): moderate utilisation; Utilisation of nutrient by K. pneumoniae from nutrient mixture (1H-NMR) ([7]; aerobic): high utilisation
"N[C@@H](Cc1ccc(O)cc1)C(=O)O [tyrosine, L-tyrosine]",,not utilised,not utilised,,,,able to grow,
O=c1cc[nH]c(=O)[nH]1 [uracil],,did not use,did not utilise,able to grow,,able to grow,able to grow,Utilisation of nutrient by E. coli from nutrient mixture (1H-NMR) (NDM-1 Escherichia coli [9]; aerobic): moderate utilisation; Utilisation of nutrient by E. coli from nutrient mixture (1H-NMR) (NDM-1 Escherichia coli [9]; anaerobic): moderate utilisation; Utilisation of nutrient by K. pneumoniae from nutrient mixture (1H-NMR) ([7]; aerobic): low utilisation; Utilisation of nutrient by K. pneumoniae from nutrient mixture (1H-NMR) ([7]; anaerobic): did not utilise
"CC(C)[C@H](N)C(=O)O [valine, L-valine]",could use,,,,could use,,,Use as sole nitrogen source to support E. coli growth (NDM-1 Escherichia coli [4]; anaerobic): could use
